Experimental data reported in patent US9770026B2, “Substituted pyrimidine compound and uses thereof” (Shenyang Sinochem Agrochemicals R&D Co., Ltd., priority 2012, dated 2017).

Experiments:
armyworm = assay: bioactivity test against armyworm, airbrush spray; format: in vivo; conditions: 72 h, 600 mg/L; read-out: Insecticidal activity against armyworm (%)
carmine spider mite = assay: bioactivity test against carmine spider mite, airbrush spray; format: in vivo; conditions: Tetranychus cinnabarinus, 72 h, contrastive test, read-out: Insecticidal activity against carmine spider mite (% ); for pest or weed control at 600 µg/mL: 600 mg/L
Outline: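 Broadbean seedlings infested with adult mites were sprayed with compound (acetone/methanol stock diluted in 0.1% Tween 80 water) by airbrush at 0.7 kg/cm^2, 0.5 ml. Three replicates were run. Mortality was scored after 72 hrs.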

corn rust = assay: protectant activity in vivo against corn rust; conditions: Zea mays, 168 h, protectant activity; for pest or weed control at 400 µg/mL: read-out: control effect against corn rust (%), 400 mg/L; for pest or weed control at 6.25 µg/mL: read-out: control effect against corn rust (%), 6.25 mg/L; for pest or weed control at 25 µg/mL: read-out: control effect against corn rust (%), 25 mg/L; for pest or weed control at 100 µg/mL: read-out: control effect against corn rust (%), 100 mg/L
cucumber gray mold = assay: fungicidal activity in vitro (inhibition rate) against cucumber gray mold; format: cell-based; conditions: 25 ppm, in vitro; read-out: inhibition rate against cucumber gray mold
wheat powdery mildew = assay: protectant activity in vivo against wheat powdery mildew; conditions: Triticum aestivum, 168 h, protectant activity; for pest or weed control at 400 µg/mL: read-out: control effect against wheat powdery mildew (%), 400 mg/L; for pest or weed control at 6.25 µg/mL: read-out: control effect against wheat powdery mildew (%), 6.25 mg/L; for pest or weed control at 25 µg/mL: read-out: control effect against wheat powdery mildew (%), 25 mg/L; for pest or weed control at 100 µg/mL: read-out: control effect against wheat powdery mildew (%), 100 mg/L
[1] = system: Green peach aphids (Myzus Persicae Sulzer); assay: bioactivity test against green peach aphid, airbrush foliar spray; format: in vivo; conditions: Myzus persicae, foliar, 48 h, contrastive test, read-out: Insecticidal activity against peach aphid (%); for pest or weed control at 10 µg/mL: 10 mg/L; for pest or weed control at 100 µg/mL: 100 mg/L; for pest or weed control at 600 µg/mL: 600 mg/L
Outline: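 Death rate was scored at 48 hrs, held at 25±1 C and 60±5% RH, following airbrush foliar spray (0.5 mL, 10 psi) onto cabbage leaf discs bearing about 15-30 aphids. Test solutions: compound dissolved in 1:1 acetone:methanol, brought to concentration with 0.1% tween 80 water.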

Diamond back moth = assay: insecticidal activity against diamond back moth, airbrush spray; format: in vivo; conditions: 72 h, 600 mg/L
Outline: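 Airbrush leaf-disc spray test: both faces of 2 cm cabbage discs received 0.5 ml of test solution at 0.7 kg/cm^2. Solutions were made in acetone:methanol (1:1) and brought to concentration with 0.1% Tween 80 in water. Ten second-instar larvae per disc, triplicates, were held at 25° C and 60˜70% R.H., with mortality recorded at 72 hrs.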

cucumber downy mildew = assay: protectant activity in vivo against cucumber downy mildew; conditions: Cucumis sativus, 168 h, protectant activity; for pest or weed control at 400 µg/mL: read-out: control effect against cucumber downy mildew (%), 400 mg/L; for pest or weed control at 25 µg/mL: read-out: control effect against cucumber downy mildew (%), 25 mg/L; for pest or weed control at 50 µg/mL: read-out: control effect against cucumber downy mildew (%), 50 mg/L; for pest or weed control at 100 µg/mL: read-out: control effect against cucumber downy mildew (%), 100 mg/L

Compound	pest or weed control at 600 µg/mL (armyworm) [%]	pest or weed control at 600 µg/mL (carmine spider mite) [%]	pest or weed control at 400 µg/mL (corn rust) [%]	inhibition at 25 ppm (cucumber gray mold) [%]	pest or weed control at 400 µg/mL (wheat powdery mildew) [%]	pest or weed control at 10 µg/mL [1] [%]	pest or weed control at 100 µg/mL [1] [%]	pest or weed control at 600 µg/mL [1] [%]	pest or weed control at 600 µg/mL (Diamond back moth) [%]	pest or weed control at 400 µg/mL (cucumber downy mildew) [%]	pest or weed control at 6.25 µg/mL (corn rust) [%]	pest or weed control at 25 µg/mL (corn rust) [%]	pest or weed control at 100 µg/mL (corn rust) [%]	further results
CCOC(=O)c1ccc(Oc2ccc(CCNc3nc(Cl)ncc3Cl)cc2)nc1 [CK75, reference compound]	0	0	0	0	0	0	0	100	0	60	–	–	–	–
COC(=O)c1ccc(Oc2ccc(CCNc3cc(Cl)nc(C)n3)cc2)nc1 [CK79, reference compound]	0	27	0	0	0	0	16	100	0	85	–	–	–	–
CCOC(=O)c1ccc(Oc2ccc(CCNc3cc(Cl)nc(C)n3)cc2)nc1 [CK76, reference compound]	0	41	70	0	75	–	–	52	0	0	–	–	–	–
Cc1nc(Cl)cc(NCCc2ccc(Oc3ccc(C(F)(F)F)cn3)cc2)n1 [CK67, reference compound]	0	61	0	0	0	0	54	86	14	100	–	–	–	pest or weed control at 25 µg/mL (cucumber downy mildew): 0%; pest or weed control at 50 µg/mL (cucumber downy mildew): 20%; pest or weed control at 100 µg/mL (cucumber downy mildew): 60%
CCOC(=O)c1ccc(Oc2ccc(CCNc3cc(Cl)ncn3)cc2)nc1 [CK74, reference compound]	0	0	100	0	0	26	100	100	0	50	85	90	100	–
N#Cc1ccc(Oc2ccc(CCNc3nc(Cl)ncc3Cl)cc2)nc1 [CK26, reference compound]	0	0	100	0	70	45	48	100	0	100	0	0	0	pest or weed control at 25 µg/mL (cucumber downy mildew): 0%; pest or weed control at 50 µg/mL (cucumber downy mildew): 40%; pest or weed control at 100 µg/mL (cucumber downy mildew): 60%
COC(=O)c1ccc(Oc2ccc(CCNc3cc(Cl)ncn3)cc2)nc1 [CK77, reference compound]	0	56	100	0	100	–	–	72	0	0	0	40	60	pest or weed control at 6.25 µg/mL (wheat powdery mildew): 70%; pest or weed control at 25 µg/mL (wheat powdery mildew): 80%; pest or weed control at 100 µg/mL (wheat powdery mildew): 100%
FC(F)(F)c1cccnc1Oc1ccc(CCNc2cc(Cl)ncn2)cc1 [CK80, reference compound]	0	6	100	0	100	16	40	87	0	85	0	20	85	pest or weed control at 6.25 µg/mL (wheat powdery mildew): 0%; pest or weed control at 25 µg/mL (wheat powdery mildew): 0%; pest or weed control at 100 µg/mL (wheat powdery mildew): 80%
COC(=O)c1ccc(Oc2ccc(CCNc3nc(Cl)ncc3Cl)cc2)nc1 [CK78, reference compound]	0	17	0	0	0	–	–	0	0	0	–	–	–	–
CCc1ncnc(NC(=O)Cc2ccc(Oc3ccc(C(F)(F)F)cc3Cl)cc2)c1Cl [CK57, reference compound]	0	33	0	< 50	0	–	–	61	0	50	–	–	–	–
Cc1ncnc(NCc2ccc(Oc3ccc(C(F)(F)F)cc3)cc2)c1Cl [CK53, reference compound]	0	100	0	0	100	34	66	84	0	100	–	–	–	pest or weed control at 10 µg/mL (carmine spider mite; 10 mg/L): 12%; pest or weed control at 100 µg/mL (carmine spider mite; 100 mg/L): 100%; pest or weed control at 6.25 µg/mL (wheat powdery mildew): 0%; pest or weed control at 25 µg/mL (wheat powdery mildew): 0%; pest or weed control at 100 µg/mL (wheat powdery mildew): 80%; pest or weed control at 25 µg/mL (cucumber downy mildew): 60%; pest or weed control at 50 µg/mL (cucumber downy mildew): 85%; pest or weed control at 100 µg/mL (cucumber downy mildew): 90%
Cc1nc(Cl)cc(NCCc2ccc(Oc3ncc(C(F)(F)F)cc3Cl)cc2)n1 [CK68, reference compound]	0	4	0	0	0	–	–	0	14	0	–	–	–	–
